# How the values were obtained:
# wheat [1] = experiment: Test A postemergence; format: in vivo, Triticum aestivum
# In short: (§1)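 After sowing in a sand–loam mix, pots received compound preemergence by directed soil spray, or postemergence once plants reached the one- to two-leaf stage (2–10 cm). Formulation contained surfactant in a non-phytotoxic solvent. Injury was scored visually after ~10 greenhouse days, 0–100 scale.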
# pigweed [2] = experiment: Test A preemergence; format: in vivo, Amaranthus retroflexus; settings: for Pigweed plant response rating: 0 to 100 scale
# In short: as §1
# corn [3] = experiment: Test A preemergence; format: in vivo, Zea mays
# In short: as §1
# corn [4] = experiment: Test A postemergence; format: in vivo, Zea mays
# In short: as §1
# rice [5] = experiment: Test C flooded paddy test; format: in vivo, Oryza sativa; settings: Flood
# From the text: (§2) At time of treatment, test pots were flooded to 3 cm above the soil surface, treated by application of test compounds directly to the paddy water, and then maintained at that water depth for the duration of the test. Treated plants and controls were maintained in a greenhouse for 13 to 15 days, after which time all species were compared to controls and visually evaluated. […] A dash (-) response means no test result.
# crabgrass, large [6] = experiment: Test A postemergence; format: in vivo, Digitaria sanguinalis
# In short: as §1
# crabgrass, large [7] = experiment: Test A preemergence; format: in vivo, Digitaria sanguinalis
# In short: as §1
# foxtail, giant [8] = experiment: Test A postemergence; format: in vivo, Setaria faberii
# In short: as §1
# barnyardgrass [9] = experiment: Test C flooded paddy test; format: in vivo, Echinochloa crus-galli; settings: Flood
# From the text: as §2
# barnyardgrass [10] = experiment: Test A preemergence; format: in vivo, Echinochloa crus-galli
# In short: as §1
# barnyardgrass [11] = experiment: Test A postemergence; format: in vivo, Echinochloa crus-galli; settings: Postemergence
# In short: as §1
# pigweed [12] = experiment: Test A postemergence; format: in vivo, Amaranthus retroflexus
# In short: as §1
# velvetleaf [13] = experiment: Test A postemergence; format: in vivo, Abutilon theophrasti
# In short: as §1
# morningglory [14] = experiment: Test A preemergence; format: in vivo, Ipomoea spp.; settings: for Morningglory plant response rating: 0 to 100 scale
# In short: as §1
# ducksalad [15] = experiment: Test C flooded paddy test; format: in vivo, Heteranthera limosa; settings: Flood
# From the text: as §2
# velvetleaf [16] = experiment: Test A preemergence; format: in vivo, Abutilon theophrasti; settings: for Velvetleaf plant response rating: 0 to 100 scale
# In short: as §1
# wheat [17] = experiment: Test A preemergence; format: in vivo, Triticum aestivum; settings: for Wheat plant response rating: 0 to 100 scale
# In short: as §1
# sedge, umbrella [18] = experiment: Test C flooded paddy test; format: in vivo, Cyperus difformis; settings: Flood
# From the text: as §2
# foxtail, giant [19] = experiment: Test A preemergence; format: in vivo, Setaria faberii
# In short: as §1
# morningglory [20] = experiment: Test A postemergence; format: in vivo, Ipomoea spp.
# In short: as §1
# ducksalad [21] = experiment: Test B flood; format: in vivo, Heteranthera limosa; settings: 250 g ai/ha, visual rating on 0 to 100 scale (0 no effect, 100 complete control), 13 to 15 days
# In short: (§3)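 Visual ratings (0 = no effect, 100 = complete control) versus untreated controls were taken 13–15 days after treatment of greenhouse plants. Treatment was added to paddy water held at 3 cm depth on 2-leaf-stage seedlings.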
# sedge, umbrella [22] = experiment: Test B flood; format: in vivo, Cyperus difformis; settings: 250 g ai/ha, visual rating on 0 to 100 scale (0 no effect, 100 complete control), 13 to 15 days
# In short: as §3
# barnyardgrass [23] = experiment: Test B flood; format: in vivo, Echinochloa crus-galli; settings: 250 g ai/ha, visual rating on 0 to 100 scale (0 no effect, 100 complete control), 13 to 15 days
# In short: as §3
# rice [24] = experiment: Test B flood; format: in vivo, Oryza sativa; settings: 250 g ai/ha, visual rating on 0 to 100 scale (0 no effect, 100 complete control), 13 to 15 days
# In short: as §3
# [25] = Postemergence, 500 g ai/ha, visual rating after approx. 10 days, 0 to 100 scale (0 no effect, 100 complete control)
# [26] = postemergence, 125 g ai/ha, about 10 days, visual rating on 0 to 100 scale (0 no effect, 100 complete control)
# [27] = Preemergence, 500 g ai/ha, 0 no effect, 100 complete control
# [28] = preemergence, 125 g ai/ha, visual injury, approx. 10 days
# [29] = Preemergence, 500 g ai/ha, 0 to 100 scale, 0 no effect, 100 complete control
# [30] = preemergence, 125 g ai/ha, visual injury, 0 to 100 scale, approx. 10 days
# [31] = 31 g ai/ha, scale 0 to 100 (0 no effect, 100 complete control)
# [32] = 62 g ai/ha, scale 0 to 100 (0 no effect, 100 complete control)
# [33] = 125 g ai/ha, 0 to 100 scale, 0 no effect, 100 complete control
# [34] = Postemergence, 1000 g ai/ha, visual rating after approx. 10 days, 0 to 100 scale (0 no effect, 100 complete control)
# [35] = Preemergence, 1000 g ai/ha, 0 no effect, 100 complete control
# [36] = Preemergence, 1000 g ai/ha, 0 to 100 scale, 0 no effect, 100 complete control
# [37] = Postemergence, 125 g ai/ha, 0 to 100 scale, 0 no effect, 100 complete control
# [38] = Postemergence, 500 g ai/ha, 0 to 100 scale (0 no effect, 100 complete control)
# [39] = preemergence, 125 g ai/ha, visual injury approx. 10 days after treatment
# [40] = preemergence, 500 g ai/ha, visual injury after approx. 10 days, 0 to 100 scale (0 no effect, 100 complete control)
smiles,measurement,setting,value
CNC(=O)c1cc(C)n(Cc2cccc(OC(F)(F)F)c2)n1 [Compound 3],Wheat plant response rating,wheat [1]; [25],0
same,Wheat plant response rating,wheat [1]; [26],0
same,Pigweed plant response rating,pigweed [2]; [27],100
same,Pigweed plant response rating,pigweed [2]; [28],0
same,Corn plant response rating,corn [3]; [29],0
same,Corn plant response rating,corn [3]; [30],0
same,Corn plant response rating,corn [4]; [25],10
same,Corn plant response rating,corn [4]; [26],0
same,"Plant response rating, Rice",rice [5]; [31],0
same,"Plant response rating, Rice",rice [5]; [32],0
same,"Plant response rating, Rice","rice [5]; 125 g ai/ha, scale 0 to 100",0
same,"Plant response rating, Rice","rice [5]; 250 g ai/ha, scale 0 to 100",0
same,"Crabgrass, Large plant response rating","crabgrass, large [6]; [25]",10
same,"Crabgrass, Large plant response rating","crabgrass, large [6]; [26]",0
same,"Crabgrass, Large plant response rating","crabgrass, large [7]; [29]",30
same,"Crabgrass, Large plant response rating","crabgrass, large [7]; [30]",0
same,"Foxtail, Giant plant response rating","foxtail, giant [8]; [25]",0
same,"Foxtail, Giant plant response rating","foxtail, giant [8]; [26]",0
same,"Plant response rating, Barnyardgrass",barnyardgrass [9]; [31],0
same,"Plant response rating, Barnyardgrass",barnyardgrass [9]; [32],0
same,"Plant response rating, Barnyardgrass","barnyardgrass [9]; 125 g ai/ha, scale 0 to 100",0
same,"Plant response rating, Barnyardgrass","barnyardgrass [9]; 250 g ai/ha, scale 0 to 100",0
same,Barnyardgrass plant response rating,barnyardgrass [10]; [29],0
same,Barnyardgrass plant response rating,barnyardgrass [10]; [30],0
same,Barnyardgrass plant response rating,barnyardgrass [11]; [33],0
same,Barnyardgrass plant response rating,"barnyardgrass [11]; 500 g ai/ha, visual rating after approx. 10 days, 0 to 100 scale (0 no effect, 100 complete control)",0
same,Pigweed plant response rating,pigweed [12]; [25],70
same,Pigweed plant response rating,pigweed [12]; [26],20
same,Velvetleaf plant response rating,velvetleaf [13]; [25],20
same,Velvetleaf plant response rating,velvetleaf [13]; [26],0
same,Morningglory plant response rating,morningglory [14]; [27],0
same,Morningglory plant response rating,morningglory [14]; [28],0
same,"Plant response rating, Ducksalad",ducksalad [15]; [31],40
same,"Plant response rating, Ducksalad",ducksalad [15]; [32],50
same,"Plant response rating, Ducksalad","ducksalad [15]; 125 g ai/ha, scale 0 to 100",50
same,"Plant response rating, Ducksalad","ducksalad [15]; 250 g ai/ha, scale 0 to 100",60
same,Velvetleaf plant response rating,velvetleaf [16]; [27],0
same,Velvetleaf plant response rating,velvetleaf [16]; [28],0
same,Wheat plant response rating,wheat [17]; [28],0
same,"Plant response rating, Sedge, Umbrella","sedge, umbrella [18]; [31]",0
same,"Plant response rating, Sedge, Umbrella","sedge, umbrella [18]; [32]",0
same,"Plant response rating, Sedge, Umbrella","sedge, umbrella [18]; 125 g ai/ha, scale 0 to 100",0
same,"Plant response rating, Sedge, Umbrella","sedge, umbrella [18]; 250 g ai/ha, scale 0 to 100",0
same,"Foxtail, Giant plant response rating","foxtail, giant [19]; [29]",20
same,"Foxtail, Giant plant response rating","foxtail, giant [19]; [30]",0
same,Morningglory plant response rating,morningglory [20]; [25],20
same,Morningglory plant response rating,morningglory [20]; [26],10
CCCc1cc(C(=O)NCC(F)(F)F)nn1Cc1cccc(C(F)(F)F)c1 [Compound 31],Wheat plant response rating,wheat [1]; [34],30
same,Pigweed plant response rating,pigweed [2]; [35],90
same,Corn plant response rating,corn [3]; [36],10
same,Corn plant response rating,corn [4]; [34],20
same,"Plant response rating, Rice",rice [5]; [31],0
same,"Plant response rating, Rice",rice [5]; [32],0
same,"Plant response rating, Rice","rice [5]; 125 g ai/ha, scale 0 to 100",0
same,"Plant response rating, Rice","rice [5]; 250 g ai/ha, scale 0 to 100",15
same,"Crabgrass, Large plant response rating","crabgrass, large [6]; [34]",60
same,"Crabgrass, Large plant response rating","crabgrass, large [7]; [36]",100
same,"Foxtail, Giant plant response rating","foxtail, giant [8]; [34]",70
same,"Plant response rating, Barnyardgrass",barnyardgrass [9]; [31],0
same,"Plant response rating, Barnyardgrass",barnyardgrass [9]; [32],0
same,"Plant response rating, Barnyardgrass","barnyardgrass [9]; 125 g ai/ha, scale 0 to 100",0
same,"Plant response rating, Barnyardgrass","barnyardgrass [9]; 250 g ai/ha, scale 0 to 100",20
same,Barnyardgrass plant response rating,barnyardgrass [10]; [36],50
same,Barnyardgrass plant response rating,"barnyardgrass [11]; 1000 g ai/ha, visual rating after approx. 10 days, 0 to 100 scale (0 no effect, 100 complete control)",60
same,Pigweed plant response rating,pigweed [12]; [34],100
same,Velvetleaf plant response rating,velvetleaf [13]; [34],100
same,Morningglory plant response rating,morningglory [14]; [35],40
same,Velvetleaf plant response rating,velvetleaf [16]; [35],50
same,Wheat plant response rating,wheat [17]; [35],10
same,"Plant response rating, Sedge, Umbrella","sedge, umbrella [18]; [31]",30
same,"Plant response rating, Sedge, Umbrella","sedge, umbrella [18]; [32]",70
same,"Plant response rating, Sedge, Umbrella","sedge, umbrella [18]; 125 g ai/ha, scale 0 to 100",85
same,"Plant response rating, Sedge, Umbrella","sedge, umbrella [18]; 250 g ai/ha, scale 0 to 100",85
same,"Foxtail, Giant plant response rating","foxtail, giant [19]; [36]",100
same,Morningglory plant response rating,morningglory [20]; [34],100
CCCNC(=O)c1cc(COC)n(Cc2cc(C(F)(F)C(F)(F)F)nn2C)n1 [Compound 228],"Plant response rating, Ducksalad",ducksalad [21],30
same,Wheat plant response rating,wheat [1]; [37],0
same,Wheat plant response rating,wheat [1]; [38],10
same,Pigweed plant response rating (0 to 100 scale),pigweed [2]; [39],90
same,"Plant response rating, Sedge, Umbrella","sedge, umbrella [22]",30
same,Corn plant response rating (0 to 100 scale),corn [3]; [39],0
same,Corn plant response rating,corn [3]; [40],30
same,Corn plant response rating,corn [4]; [37],10
same,Corn plant response rating,corn [4]; [38],50
same,"Crabgrass, Large plant response rating","crabgrass, large [6]; [37]",20
same,"Crabgrass, Large plant response rating","crabgrass, large [6]; [38]",60
same,"Crabgrass, Large plant response rating (0 to 100 scale)","crabgrass, large [7]; [39]",90
same,"Crabgrass, Large plant response rating","crabgrass, large [7]; [40]",100
same,"Foxtail, Giant plant response rating","foxtail, giant [8]; [37]",10
same,"Foxtail, Giant plant response rating","foxtail, giant [8]; [38]",60
same,"Barnyardgrass plant response rating (0 to 100 scale, 0 is no effect, 100 is complete control)",barnyardgrass [10]; [39],10
same,Barnyardgrass plant response rating,barnyardgrass [10]; [40],90
same,"Plant response rating, Barnyardgrass",barnyardgrass [23],0
same,Barnyardgrass plant response rating,barnyardgrass [11]; [33],0
same,Barnyardgrass plant response rating,"barnyardgrass [11]; 500 g ai/ha, 0 to 100 scale (0 no effect, 100 complete control)",50
same,Pigweed plant response rating,pigweed [12]; [37],30
same,Pigweed plant response rating,pigweed [12]; [38],80
same,Velvetleaf plant response rating,velvetleaf [13]; [37],10
same,Velvetleaf plant response rating,velvetleaf [13]; [38],30
same,"Plant response rating, Rice",rice [24],0
same,Morningglory plant response rating (0 to 100 scale),morningglory [14]; [39],30
same,Velvetleaf plant response rating (0 to 100 scale),velvetleaf [16]; [39],0
same,Wheat plant response rating (0 to 100 scale),wheat [17]; [39],0
same,"Foxtail, Giant plant response rating (0 to 100 scale)","foxtail, giant [19]; [39]",30
same,"Foxtail, Giant plant response rating","foxtail, giant [19]; [40]",80
same,Morningglory plant response rating,morningglory [20]; [37],50
same,Morningglory plant response rating,morningglory [20]; [38],100

# Reference: patent publication US20150105252A1, “SUBSTITUTED PYRAZOLES AS HERBICIDES” (E I DU PONT DE NEMOURS AND COMPANY, priority 2013, published 2015)
